We go through three compounds from PMC5007978, “A chemical with proven clinical safety rescues Down-syndrome-related phenotypes in through DYRK1A inhibition” (Disease Models & Mechanisms, 2016).

The IC50 is the concentration at which inhibition is half-maximal.

Assay [1] has as its target T1, DYRK1A (Homo sapiens, UniProt Q13627). The arrangement: expressed in transfected cells; host or cells: 293T cells; method as in Ogawa et al., 2010. As to conditions: ref Ogawa et al., 2010; cited from earlier work.
Assay [2] has as its system calcineurin-NFAT signaling. Nature of the assay: NFAT-RE promoter luciferase reporter assay (NRE-Luc) in 293T cells. The class given is cell-based. The following applies: IM and PMA (10 nM), 1, 3 and 10 μM. The protocol:
Fig. 5. […] Firefly luciferase activities were measured using One-Glo reagents. Luciferase activity in the sample with reporter plasmid alone was set to 1, and the relative luciferase activities were calculated. Means±s.d. were determined from two independent experiments.
Treatment with IM and phorbol 12-myristate 13-acetate (PMA) induced a dramatic increase in luciferase activity (∼20 fold) as a result of the nuclear translocation of NFATc1 and the subsequent transcriptional activation (Fig. 5B). In this situation, the overexpression of DYRK1A suppressed the stimulatory effect of IM and PMA by 75%, resulting in a 4.5-fold increase in luciferase activity compared with that of the control (Fig. 5B).
The firefly luciferase reporter assay was performed using a One-Glo Assay System (Promega) according to the manufacturer's instructions. The transcriptional activity of NFATc1 in 293T cells was measured with a reporter vector (pGL4.30 luc2P/NFAT-RE/Hygro) (Promega) that expresses the firefly luciferase gene under the control of an NFAT-RE promoter. 293T cells were transfected with the DYRK1A-expressing plasmid and reporter plasmid. On the next day, cells were treated with IM (2.5 μM) and phorbol-12-myristate-13-acetate (10 nM) along with the indicated amounts of inhibitors. Cells were further incubated for 8 h and then cell lysates were harvested to measure luciferase activity.
(In general: In a reporter assay the amount or activity of a reporter protein is the signal.)

A further assay has as its target T2, DYRK3 (Homo sapiens, UniProt O43781).
T2 construct: purchased Life Technologies (Kinase Profiler service)
T2 sequence (O43781 1-588): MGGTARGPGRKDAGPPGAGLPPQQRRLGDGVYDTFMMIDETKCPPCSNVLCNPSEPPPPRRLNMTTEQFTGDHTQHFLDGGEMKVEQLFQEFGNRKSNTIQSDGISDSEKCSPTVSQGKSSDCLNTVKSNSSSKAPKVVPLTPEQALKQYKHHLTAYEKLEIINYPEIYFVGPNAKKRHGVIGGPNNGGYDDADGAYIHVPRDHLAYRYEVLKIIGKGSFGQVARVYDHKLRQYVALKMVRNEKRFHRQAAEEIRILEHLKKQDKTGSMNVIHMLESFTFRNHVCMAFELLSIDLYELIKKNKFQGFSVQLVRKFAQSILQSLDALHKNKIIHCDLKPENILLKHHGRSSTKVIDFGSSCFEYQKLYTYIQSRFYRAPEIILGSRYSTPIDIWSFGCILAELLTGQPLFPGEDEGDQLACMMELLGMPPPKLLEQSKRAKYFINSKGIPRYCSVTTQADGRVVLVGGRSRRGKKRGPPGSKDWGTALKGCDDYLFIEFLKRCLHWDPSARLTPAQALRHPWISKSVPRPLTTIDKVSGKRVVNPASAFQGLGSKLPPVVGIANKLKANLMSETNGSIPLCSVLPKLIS
Put plainly: In vitro kinase assay, recombinant human DYRK3 (Life Technologies). Format: biochemical.

For another assay, the target named is T3, DYRK4 (Homo sapiens, UniProt Q9NR20).
T3 construct: purchased Life Technologies (Kinase Profiler service)
T3 sequence (Q9NR20 1-520): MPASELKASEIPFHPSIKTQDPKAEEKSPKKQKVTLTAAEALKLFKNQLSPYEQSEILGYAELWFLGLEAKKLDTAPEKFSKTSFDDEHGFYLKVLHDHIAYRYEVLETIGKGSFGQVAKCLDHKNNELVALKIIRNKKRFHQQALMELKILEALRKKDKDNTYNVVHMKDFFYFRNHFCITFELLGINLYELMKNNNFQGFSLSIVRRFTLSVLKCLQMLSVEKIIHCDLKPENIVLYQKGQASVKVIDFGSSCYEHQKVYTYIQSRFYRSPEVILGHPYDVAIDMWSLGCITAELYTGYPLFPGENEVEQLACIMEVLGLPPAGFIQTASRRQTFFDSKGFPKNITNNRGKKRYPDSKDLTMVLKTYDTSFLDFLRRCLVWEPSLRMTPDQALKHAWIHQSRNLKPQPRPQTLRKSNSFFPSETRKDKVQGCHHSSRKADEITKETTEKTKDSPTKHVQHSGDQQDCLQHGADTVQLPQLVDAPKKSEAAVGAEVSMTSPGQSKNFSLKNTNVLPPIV
Nature of the assay: In vitro kinase assay, recombinant human DYRK4 (Life Technologies). Format: biochemical.

Assay [3] deals with mnb-overexpressing Drosophila. Put plainly: Wing vein (LV5) defect rescue in mnb-overexpressing flies (MS1096-gal4). Format: in vivo, Drosophila melanogaster.
For assay [4], the target named is T1, DYRK1A. Nature of the assay: DYRK1A-mediated Tau (T212) phosphorylation in transfected 293T cells, western blot. The class given is cell-based. The arrangement: expressed in transfected cells; host or cells: 293T cells. The following applies: 6 h treatment, western blot, estimated, read-out: IC50 on Tau phosphorylation (T212) induced by DYRK1A overexpression.

Take `CCN1/C(=C/C(C)=O)Sc2ccc(O)cc21` [INDY]: the “DYRK1A inhibitory activity compared with harmine” value on DYRK1A [1] was “slightly weaker inhibitory activities than harmine”. Besides, in assay [2], the “NFATc1-dependent transcriptional activation (NRE-Luc) suppressed by DYRK1A overexpression” value is “dose-dependently derepressed”.
Consider `COc1ccc2c(c1)[nH]c1c(C)nccc12` [harmine], for which the values for the IC50 on DYRK3 and at DYRK4 were 0.563 µM and 5.88 µM, respectively. Besides, the “NFATc1-dependent transcriptional activation (NRE-Luc) suppressed by DYRK1A overexpression” value in assay [2] is on record as “dose-dependently derepressed”. The “concentration required for a similar rescue of wing (LV5) defect” value in assay [3] was in the range of 10 to 25 µM.
For the compound `CCN1/C(=C/C(C)=O)Sc2ccc(OC(C)=O)cc21` [proINDY], at DYRK1A [1], the “DYRK1A inhibitory activity compared with harmine” value is listed as “slightly weaker inhibitory activities than harmine”. Further, the “NFATc1-dependent transcriptional activation (NRE-Luc) suppressed by DYRK1A overexpression” value in assay [2] is “dose-dependently derepressed”. The IC50 on DYRK1A [4] is about 2 µM.
